Assays:
[1] = biological target: T1, GTP-loaded KRAS4b (amino acids 1-169) G12C/C118S protein (Homo sapiens, UniProt P01116, C118S/G12C); assay: Covalent cysteine 12 modification by MALDI-TOF MS, GTP-loaded KRAS G12C; assay type: binding; conditions: 15 minutes reaction time point
T1 construct: KRAS4b (amino acids 1-169) G12C/C118S protein; made in house
Method in brief: (§1)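 Covalent adduct formation measured by linear-mode MALDI-TOF MS as modified peak height over summed peak heights, 15 min time point reported. Reactions: KRAS4b 1-169 G12C/C118S (1 μM, loaded with GppNHp, GTP or GDP) plus compound at 1:2.5 ratio, pH 7.3 HEPES/NaCl/MgCl2, room temperature.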

[2] = biological target: T2, GDP-loaded KRAS4b (amino acids 1-169) G12C/C118S protein (Homo sapiens, UniProt P01116, C118S/G12C); assay: Covalent cysteine 12 modification by MALDI-TOF MS, GDP-loaded KRAS G12C; assay type: binding; conditions: 15 minutes reaction time point
T2 construct: KRAS4b (amino acids 1-169) G12C/C118S protein; made in house
Method in brief: as §1

[3] = biological target: T3, Avi-KRAS G12C (1-169) GppNHp/RAF1 RBD-3×FLAG (52-151) (Homo sapiens, UniProt P01116, G12C); assay: Raf1 RBD-KRAS G12C-GppNHp disruption assay (protein:protein interaction HTRF); assay type: biochemical
T3 construct: Avi-KRAS G12C (1-169) GppNHp; Avi (N)
Description: Biological Example 2: Disrupting KRAS G12C-Effector Binding (Protein: Protein Interaction HTRF Assay)
A protein: protein interaction (PPI) Homogeneous Time Resolved Fluorescence (HTRF) assay was used to determine the effectiveness of compounds of the present disclosure in disrupting KRAS G12C protein and effector (RAF1 Ras Binding Domain (RBD)) binding.
The HTRF assay used the following reagents and proteins: 50 nM Avi-KRAS G12C (1-169) GppNHp/RAF1 RBD-3×FLAG (52-151); 35 nM Avi-PI3K RBD-3×FLAG; Assay Buffer: 50 mM Tris pH 7.5, 100 mM NaCl, 5 mM MgCl2, 0.1% BSA, 0.01% Tween 20, 10% DMSO; Bead Buffer: 50 mM Tris pH 7.5, 0.01% Tween 20; Assay volume: 20 μL (384 well plate-low volume format); and Compound titration: 30-0.02 μM, 3× dilution series.
The HTRF assay employed the following protocol:
Compounds were dispensed in assay plate (384-well, Grenier Bio-One #784075) using Echo (model 555) with dose response settings: 200 nL final volume, titration from 100 μM as a 10-point dilution series. KRAS proteins were prepared in assay buffer, and dispensed on plates, 5 μL per well, then incubated for 1 h at room temperature, with 700 rpm shaking. RAF1 RBD were prepared in assay buffer, dispensed onto plates, 5 μL per well, and then incubated for 1 h at room temperature, with 700 rpm shaking. Reagent mix was then prepared and dispensed on plates, 10 μL per well, and then incubated for 1 h at room temperature, with 700 rpm shaking.
Plates were analyzed on an Envision plate reader using the following setting: Excitation 320 nm, Bandwidth 75 nm; Emission 615 nm, Bandwidth 85 nm; Gain 100%; Flashes 100; Lag 60 μs. Data was reported as percentage of activity, with DMSO as 100%. Data was plotted and analyzed using Prism 8.
The percent of modification of GppNHp, GTP, or GDP loaded KRAS G12C by MALDI-TOF MS, biochemical Raf1 RBD-KRAS G12C-GppNHp disruption assay IC50, and pERK inhibition IC50 of selected compounds described herein are shown in Table 4. For percent of modification at 15 minutes (MALDI-TOF MS) of GppNHp, GTP, or GDP loaded KRAS G12C: A: percent of modification ≥70%; B: 50≤percent of modification <70%; C: 10%≤percent of modification <50%; D: percent of modification <10%. […] For pERK inhibition in H358 cell assay: A: IC50≤0.1 μM; B: 0.1 μM<IC50≤1 μM; C: IC50>1 μM. Blanks in the table represent that compound was not tested in the indicated assay.

GTP-KRAS G12C percent of modification [1]	GDP-KRAS G12C percent of modification [2]	IC50 [3]	Compound
D (percent of modification <10%)	D (percent of modification <10%)	5 to 20 µM	C=CC(=O)N1CC[C@@H](N(CC)c2nc(OC[C@@H]3CC4(CC4)CN3C)nc3c(F)c(-c4ccc(F)c5sc(N)c(C#N)c45)c(Cl)cc23)[C@H]1C (atropisomer, axis not shown) [Compound 121]
C (10%≤percent of modification <50%)	B (50≤percent of modification <70%)	< 0.5 µM	C=CC(=O)N1CC[C@@H](N(C)c2nc(OC[C@@H]3C[C@@H](F)CN3CC)nc3c(F)c(-c4ccc(F)c5sc(N)c(C#N)c45)c(Cl)cc23)[C@@H]1C [Compound 105]
A (percent of modification ≥70%)	A (percent of modification ≥70%)	< 0.5 µM	C=CC(=O)N1CC[C@@H](N(C)c2nc(OC[C@@H]3CC4(CC4)CN3C)nc3c(F)c(-c4ccc(F)c5sc(N)c(C#N)c45)c(C(F)(F)F)cc23)[C@@H]1C (atropisomer, axis not shown) [Compound 111]
B (50≤percent of modification <70%)	A (percent of modification ≥70%)	< 0.5 µM	C=CC(=O)N1CC[C@@H](N(C)c2nc(OC[C@@H]3C[C@@H](OC)CN3CC)nc3c(F)c(-c4ccc(F)c5sc(N)c(C#N)c45)c(C(F)(F)F)cc23)[C@@H]1C [Compound 101]
A (percent of modification ≥70%)	A (percent of modification ≥70%)	< 0.5 µM	C=CC(=O)N1CC[C@@H](N(C)c2nc(OC[C@]34CCCN3C[C@H](OC)C4)nc3c(F)c(-c4ccc(F)c5sc(N)c(C#N)c45)c(Cl)cc23)[C@H]1C [Compound 161]
D (percent of modification <10%)	D (percent of modification <10%)	5 to 20 µM	C=CC(=O)N1CC[C@@H](N(C)c2nc(OC[C@@H]3CCCN3C)nc3c(F)c(-c4ccc(F)c5sc(N)c(C#N)c45)c(Cl)cc23)[C@H]1C (atropisomer, axis not shown) [Compound 119]
A (percent of modification ≥70%)	A (percent of modification ≥70%)	< 0.5 µM	C=CC(=O)N1CC[C@@H](N(C)c2nc(OC[C@@H]3C[C@@H](OC)CN3CC)nc3c(F)c(-c4ccc(F)c5sc(N)c(C#N)c45)c(C(F)(F)F)cc23)[C@H]1C [Compound 104]

The next lines start with the compound.

Compound	GTP-KRAS G12C percent of modification [1]	GDP-KRAS G12C percent of modification [2]	IC50 [3]
C=CC(=O)N1CC[C@@H](N(C)c2nc(OC[C@@]34CCCN3C[C@H](F)C4)nc3c(F)c(-c4ccc(F)c5sc(N)c(C#N)c45)c(C(F)(F)F)cc23)[C@H]1CC [Compound 18]	C (10%≤percent of modification <50%)	B (50≤percent of modification <70%)	< 0.5 µM
C=CC(=O)N1CC[C@@H](N(CC)c2nc(OC[C@]34CCCN3C[C@H](F)C4)nc3cc(-c4ccc(F)c5sc(N)c(C#N)c45)c(F)cc23)[C@H]1C [Compound 167]	A (percent of modification ≥70%)	A (percent of modification ≥70%)	< 0.5 µM
C=CC(=O)N1CC[C@@H](N(C)c2nc(OC[C@@]34CCCN3C[C@H](F)C4)nc3c(F)c(-c4ccc(F)c5sc(N)c(C#N)c45)ccc23)[C@@H]1CC [Compound 23]	C (10%≤percent of modification <50%)	A (percent of modification ≥70%)	< 0.5 µM
C=CC(=O)N1CC[C@@H](N(CC)c2nc(OC[C@@H]3CCCN3C)nc3c(F)c(-c4nc(N)cc(C)c4C(F)(F)F)c(C(F)(F)F)cc23)[C@H]1C [Compound 155]	C (10%≤percent of modification <50%)	C (10%≤percent of modification <50%)	< 0.5 µM
C=CC(=O)N1CCN(c2nc(OC[C@@]34CCCN3C[C@H](F)C4)nc3c(F)c(-c4ccc(F)c5sc(N)c(C#N)c45)c(C(F)(F)F)cc23)C2CC21 (stereo partly drawn) [Compound 106]	C (10%≤percent of modification <50%)	A (percent of modification ≥70%)	< 0.5 µM
C=CC(=O)N1CC[C@@H](N(C)c2nc(OC[C@@]34CCCN3C[C@H](F)C4)nc3c(F)c(-c4ccc(F)c5sc(N)c(C#N)c45)ccc23)[C@H]1CC [Compound 4]	A (percent of modification ≥70%)	A (percent of modification ≥70%)	< 0.5 µM
C=CC(=O)N1CC[C@H](N(CC)c2nc(OC[C@@]34CCCN3C[C@H](F)C4)nc3c(F)c(-c4ccc(F)c5sc(N)c(C#N)c45)c(C(F)(F)F)cc23)C1 (atropisomer, axis not shown) [Compound 171]	B (50≤percent of modification <70%)	C (10%≤percent of modification <50%)	< 0.5 µM
C=CC(=O)N1CCC(N(C)c2nc(OC[C@@]34CCCN3C[C@H](F)C4)nc3cc(-c4ccc(F)c5sc(N)c(C#N)c45)c(C#N)cc23)[C@H]1CC (stereo partly drawn) [Compound 7]	A (percent of modification ≥70%)	A (percent of modification ≥70%)	< 0.5 µM
C=CC(=O)N1C[C@H](C)N(c2nc(OC[C@@]34CCCN3C[C@H](F)C4)nc3c(F)c(-c4ccc(F)c5sc(N)c(C#N)c45)c(Cl)cc23)C[C@H]1C (atropisomer, axis not shown) [Compound 103]	D (percent of modification <10%)	D (percent of modification <10%)	5 to 20 µM
C=CC(=O)N1CC[C@@H](N(CC)c2nc(OC[C@@]34CCCN3C[C@H](OC)C4)nc3cc(-c4ccc(F)c5sc(N)c(C#N)c45)c(F)cc23)[C@H]1C [Compound 149]	A (percent of modification ≥70%)	A (percent of modification ≥70%)	< 0.5 µM
C=CC(=O)N1CC[C@@H](N(C)c2nc(OC[C@@]34CCCN3C[C@H](F)C4)nc3cc(-c4ccc(F)c5sc(N)c(C#N)c45)c(F)cc23)[C@@H]1C [Compound 31]	C (10%≤percent of modification <50%)	A (percent of modification ≥70%)	< 0.5 µM
C=CC(=O)N1CCC(N(CC)c2nc(OC[C@@]34CCCN3C[C@H](F)C4)nc3c(F)c(-c4ccc(F)c5sc(N)c(C#N)c45)ccc23)[C@H]1CC (stereo partly drawn) [Compound 11]	A (percent of modification ≥70%)	A (percent of modification ≥70%)	< 0.5 µM
C=CC(=O)N1CCC(N(CC)c2nc(OC[C@@]34CCCN3C[C@H](F)C4)nc3c(F)c(-c4ccc(F)c5sc(N)c(C#N)c45)c(Cl)cc23)[C@H]1CC (stereo partly drawn) [Compound 12]	C (10%≤percent of modification <50%)	C (10%≤percent of modification <50%)	< 0.5 µM
C=CC(=O)N1CC[C@@H](N(CC)c2nc(OC[C@@]34CCCN3C[C@H](OC)C4)nc3c(F)c(-c4ccc(F)c5sc(N)c(C#N)c45)c(C(F)(F)F)cc23)[C@H]1C [Compound 150]	A (percent of modification ≥70%)	A (percent of modification ≥70%)	< 0.5 µM

From patent US20260232666A1, “COMPOSITIONS AND METHODS FOR INHIBITION OF RAS” (TheRas, Inc., priority 2023, published 2026)
